Measured values taken from patent publication US9809640B2, “ApoE peptide dimers and uses thereof” (priority 2010, dated 2017).
pEC50, pIC50: −log10 of the molar value. Read-outs that look alike come from different tables or passages of the source. Non-standard residues stand in square brackets, D forms with d. Residues, ends and D or L forms follow the SMILES beside them. No end group written: not given here. Arg(NO2) = N=C(NCCC[C@H](N)C(=O)O)N[N+](=O)[O-]; Aib = CC(C)(N)C(=O)O

How the values were obtained:
[1] = tested on: B-CLL cells; experiment: Cytotoxicity on patient-derived B-CLL cells (MTS assay); settings: for Fold Change: CLL EC50 relative to COG056 (rev133) = 1.0
Description: FIG. 5A: Dose response curves for COG449 cytotoxicity on CLL cells from 4 leukemia patients. Human CLL cells were isolated from blood samples and assayed for COG449 cytotoxicity. […] FIG. 5B: Dose response curves for COG445 on CLL cells from 7 patients or normal B-cells from 5 patients. Human CLL cells and PBMC were isolated and assayed for cytotoxicity of COG445.
Blood from CLL patients was collected and CD5+/CD19+ CLL cells were isolated using the RosetteSep™ Human B-Cell Enrichment Cocktail, according to the manufacturer's instructions, and treated with COG compounds. Compounds were applied to B-CLL cells (2.5×10^5 cells/well in a 96 well plate), after which the cells were treated for 72 hours.
Normal B-cells from volunteers and B-CLL cells from patients are isolated using the RosetteSep™ Human B Cell Enrichment Cocktail according to the manufacturer's instructions. This method depletes whole blood of T cells, monocytes, and NK cells using a proprietary antibody cocktail that cross-links unwanted cells in human whole blood to multiple red blood cells (RBCs) forming immunorosettes. This increases the density of the unwanted (rosetted) cells, such that they pellet along with the free RBCs when centrifuged over a buoyant density medium such as Ficoll-Paque®. This leaves the highly enriched B-cell or B-CLL cells at the interface between Ficoll and the plasma. The antibodies in the cocktail contain […] and anti-CD16 antibodies to remove T cells, monocytes, and NK cells, respectively. The purity of these B-cell and B-CLL preparations is then determined by flow cytometry.
For cytotoxicity assays, 3×10^6 CLL cells/well are cultured in 24 well tissue culture plates in 1.5 mL of Hybridoma SFM™ (Gibco, Long Island, N.Y.) as described by Levesque et al. (2001, 2003). All cultures are incubated at 37° C., 5% CO2 in air.

[2] = tested on: BV2 microglia cells; settings: previously shown; cited from earlier work
[3] = tested on: BV2 microglia cells; experiment: LPS-induced nitric oxide production in BV2 microglia cells; format: cell-based; settings: for pEC50: 50% suppression of nitric oxide release from BV2 cells following LPS stimulation
Experimental: FIG. 1. COG 112 inhibits LPS-induced production of inflammatory cytokines in BV2 microglia cells. Inhibition curves for COG112 in the production of NO (green squares), TNFα (red diamonds), and IL-6 (blue triangles) by BV2 microglia. Compounds were added to the final concentrations indicated on the graph along with 100 ng/mL of LPS. After 24 hours the media was removed and assayed by two-site ELISA (BioSource) and quantitated relative to a standard curve on the same plate.
FIG. 3. NO Inhibition curve for COG449. BV2 microglia were treated with COG449 at the final concentrations indicated on the graph, along with 100 ng/mL of LPS. After 24 hours the media was removed and assayed by two-site ELISA (BioSource) and quantitated relative to a standard curve on the same plate.
(§1) We also evaluated the various peptides for efficacy in suppressing nitric oxide production induced by LPS stimulation of BV2 microglia cells as a measure of anti-inflammatory activity as well as the maximum dose tolerated in mice (Table I and FIG. 6A). For the LPS assay, EC50 is the concentration of compound that caused a 50% suppression of nitric oxide release from BV2 cells following LPS stimulation. For mouse toxicity, MTD is the maximum dose of the compound that can be given by intravenous injection without causing deaths after 24 hrs. […] Coupling the ApoE domain to a protein transduction domain further enhanced the potency of the dimers.
Low passage BV2 microglial cell cultures are maintained in 10% HI (Heat Inactivated) FBS DMEM media (supplemented with MEM NEAA (Non-Essential Amino Acids), sodium pyruvate and Pen-Strep) and continuously cultured until needed. To determine the IC50 values for NO production, peptides are added to BV2 cultures in 1% HI FBS DMEM media (supplemented with MEM NEAA and sodium pyruvate) at a range of final assay concentrations from 1.0 μM in 2 fold dilutions to 7.8 nM followed immediately by addition of LPS (100 ng/mL final concentration) as previously described (Laskowitz et al. (2001) Exp Neurol, Vol. 167(1): 74-85). After incubating for 18±1 hours, conditioned media is removed for analysis of nitrite (the stable oxidation product of released nitric oxide) by the Griess colorimetric assay (Promega). Remaining cells are assayed for viability in an MTT assay (Promega) and the nitrite assay values are normalized for each concentration using the percent viability of cells in the MTT assay. […] Typically, the absence of LPS exposure to BV2 cells results in levels below the limit of detection in our assays. Similarly, addition of any of the peptides up to 25 μM without LPS results in undetectable NO levels.

[4] = Mouse toxicity, maximum tolerated dose by intravenous injection; settings: in vivo, maximum dose by intravenous injection without deaths after 24 hrs
Description: as §1

[5] = tested on: U87MG glioblastoma cells; format: cell-based; settings: MTT
Experimental: (§2) FIG. 14A: Dose response curve of COG445 on proliferation of U87 (open circles) and MDA-MB-231 (filled circles) cells as measured by MTT reduction. FIG. 14B: Dose response curve of COG445 on proliferation of MDA-MB-231 cells as measured by cell count.
To determine whether ApoE peptide dimers were cytotoxic to other types of cancer, we evaluated the effect of three different ApoE BMOE-linked peptide dimers (COG449, COG492, COG493; see Table I) on the growth characteristics of U87MG glioblastoma cells. Various concentrations of COG449, COG492, COG493 or Sorafenib were used to treat U87MG glioblastoma cells and viable cells were quanititated using MTT. Sorafenib, which has previously been reported to be cytotoxic to glioblastoma cells (Yang et al. (2010) Mol Cancer Ther., Vol. 9(4):953-962), was used as a positive control.
(§3) Because COG445 inhibited Akt activation and downstream signaling, we examined the effects of COG445 on cellular proliferation. Adherent MB231 and U87 cells were grown for ˜24 hours in the presence of COG445 and cellular proliferation was measured by MTT reduction. […] Furthermore, COG445 inhibited MB231 cellular proliferation as determined by cell count (FIG. 14B). Approximately 6×10^4 cells were plated in growth media (RPMI+10% FBS) for 24-hours with increasing concentrations of COG445. […] However at concentrations ≧1 μM COG445, there appears to be a loss of cells. This is partially explained by decreased proliferation, although it is possible that the rate of cellular degradation was increased in the presence of COG445.

[6] = tested on: MDA-MB-231 breast cancer cells; format: cell-based; settings: 48 hours, MTT
Experimental: as §2
Next, we examined the potency of an ApoE peptide dimer versus the monomeric form on proliferation of the MDA-MB-231 breast cancer cell line. MDA-MB-231 cells were treated with various concentrations of either COG435 (monomer; SEQ ID NO: 90) or COG493 (a BMOE-linked dimer of COG 435) peptides for 48 hours. Following peptide treatment, cells were quantified using a MTT assay.
as §3

[7] = Pharmacokinetics of subcutaneously injected COG1410; settings: plasma, sc
Experimental: Male C57Bl/6 mice (20-24 g, Charles River, Raleigh, N.C.) are injected with a peptide dimer subcutaneously at a volume of 5 mL/kg in the scruff of the neck. Ten minutes before the desired timepoint, mice are anesthetized and at the desired timepoint blood is drawn by cardiac puncture. Blood from at least 4 mice is used for each timepoint with the samples collected at 5, 10, 15, 30, 45, 60, 90, 120, 180 and 240 minutes for the initial analysis. The samples are processed and the pharmacokinetic analysis is completed. […] In the event that the half life has not been reached, a repeat of the experiment is performed that uses one timepoint before the observed Tmax, a timepoint at the observed Tmax and timepoints extending long enough to adequately determine the half life based on extrapolation of the previous observations of clearance from the plasma. Analysis of three concentrations of the peptide dimer is also performed to determine if there is a dose dependent effect on the pharmacokinetic parameters.

[8] = tested on: normal B-cells; experiment: Cytotoxicity on normal B-cells from volunteers; format: cell-based, human; settings: normal B-cells from volunteers
Description: Normal B-cells from volunteers and B-CLL cells from patients are isolated using the RosetteSep™ Human B Cell Enrichment Cocktail according to the manufacturer's instructions. This method depletes whole blood of T cells, monocytes, and NK cells using a proprietary antibody cocktail that cross-links unwanted cells in human whole blood to multiple red blood cells (RBCs) forming immunorosettes. This increases the density of the unwanted (rosetted) cells, such that they pellet along with the free RBCs when centrifuged over a buoyant density medium such as Ficoll-Paque®. This leaves the highly enriched B-cell or B-CLL cells at the interface between Ficoll and the plasma. The antibodies in the cocktail contain anti-CD14, anti-CD2 and anti-CD16 antibodies to remove T cells, monocytes, and NK cells, respectively. The purity of these B-cell and B-CLL preparations is then determined by flow cytometry. Preparations typically average less than 2% CD3+ T-cells and less than 0.5% CD14+ monocytes. In the case of B-CLL cell isolation, we routinely obtain preparations that contain less than 1.5% normal CD19+/CD5− B-cells using this method.

[9] = tested on: TNFα; experiment: LPS-induced TNFα production in BV2 microglia; format: cell-based; settings: BV2 cells
Experimental: (§4) FIG. 1. […] Compounds were added to the final concentrations indicated on the graph along with 100 ng/mL of LPS. After 24 hours the media was removed and assayed by two-site ELISA (BioSource) and quantitated relative to a standard curve on the same plate.
(§5) A series of fusion peptides with COG133 conjugated to a PTD were prepared by chemical synthesis.

[10] = tested on: BV2 cells; experiment: LD50 of COG112 (safety window versus suppression in BV2 cells); format: cell-based
Experimental: We have previously shown that the addition of a protein transduction domain (PTD), such as an antennapedia peptide, to the apoE-mimetic COG133 peptide (LRVRLASHLRKLRKRLL (SEQ ID NO: 3)) enhances its anti-inflammatory activity. A series of fusion peptides with COG133 conjugated to a PTD were prepared by chemical synthesis.

[11] = tested on: IL-6; experiment: LPS-induced IL-6 production in BV2 microglia; format: cell-based; settings: BV2 cells
Experimental: as §4, §5

[12] = read-out: CLL EC50, B-CLL cells from patients, 72 hours, MTS assay

Compound	Fold Change [1]	pEC50 [1, 12]	anti-inflammatory activity relative to COG133 in NO release assays [2]	pEC50 [3]	MTD at 24 h [4]	pEC50 [8]	further results
CC(=O)N[C@@H](CC(C)C)C(=O)N[C@@H](CCCNC(=N)N)C(=O)N[C@H](C(=O)N[C@@H](CCCNC(=N)N)C(=O)N[C@@H](CC(C)C)C(=O)N[C@@H](C)C(=O)N[C@@H](CO)C(=O)NC(C)(C)C(=O)N[C@@H](CC(C)C)C(=O)N[C@@H](CCCCN)C(=O)N[C@@H](CCCNC(=N)N)C(=O)N[C@@H](CC(C)C)C(=O)N[C@@H](CCCNC(=N)N)C(=O)N[C@@H](CCCCN)C(=O)N[C@@H](CCCNC(=N)N[N+](=O)[O-])C(=O)N[C@@H](CC(C)C)C(=O)N[C@@H](CC(C)C)C(N)=O)C(C)C [COG248, LRVRLAS(Aib)LKRLRK(nitroR)LL (SEQ ID NO: 4)] (Ac-LRVRLAS[Aib]LKRLRK[Arg(NO2)]LL-NH2)	5.5	5.64	improved anti-inflammatory activity	6.05			
CC(=O)N[C@@H](Cc1c[nH]c2ccccc12)C(=O)N[C@@H](CCCCN)C(=O)N[C@@H](CCCCN)C(=O)N[C@@H](CSC1CC(=O)N(CCN2C(=O)CC(SC[C@H](NC(=O)[C@H](CCCCN)NC(=O)[C@H](CCCCN)NC(=O)[C@H](Cc3c[nH]c4ccccc34)NC(C)=O)C(=O)N[C@@H](CC(C)C)C(=O)N[C@@H](CCCNC(=N)N)C(=O)N[C@H](C(=O)N[C@@H](CCCNC(=N)N)C(=O)N[C@@H](CC(C)C)C(=O)N[C@@H](C)C(=O)N[C@@H](CO)C(=O)N[C@@H](Cc3c[nH]cn3)C(=O)N[C@@H](CC(C)C)C(=O)N[C@@H](CCCNC(=N)N)C(=O)N[C@@H](CCCCN)C(=O)N[C@@H](CC(C)C)C(=O)N[C@@H](CCCNC(=N)N)C(=O)N[C@@H](CCCCN)C(=O)N[C@@H](CCCNC(=N)N)C(=O)N[C@@H](CC(C)C)C(=O)N[C@@H](CC(C)C)C(N)=O)C(C)C)C2=O)C1=O)C(=O)N[C@@H](CC(C)C)C(=O)N[C@@H](CCCNC(=N)N)C(=O)N[C@H](C(=O)N[C@@H](CCCNC(=N)N)C(=O)N[C@@H](CC(C)C)C(=O)N[C@@H](C)C(=O)N[C@@H](CO)C(=O)N[C@@H](Cc1c[nH]cn1)C(=O)N[C@@H](CC(C)C)C(=O)N[C@@H](CCCNC(=N)N)C(=O)N[C@@H](CCCCN)C(=O)N[C@@H](CC(C)C)C(=O)N[C@@H](CCCNC(=N)N)C(=O)N[C@@H](CCCCN)C(=O)N[C@@H](CCCNC(=N)N)C(=O)N[C@@H](CC(C)C)C(=O)N[C@@H](CC(C)C)C(N)=O)C(C)C (some centres unmarked) [COG493, WKK-C-LRVRLASHLRKLRKRLL (SEQ ID NO: 90) <BMOE> WKK-C-LRVRLASHLRKLRKRLL (SEQ ID NO: 90)]					20 mg/kg		cytotoxicity to U87MG cells [5]: cytotoxic; cytotoxicity to MDA-MB-231 cells, dimer versus monomer COG435 [6]: significantly more cytotoxic
CC(=O)N[C@@H](C)C(=O)N[C@@H](CO)C(=O)NC(C)(C)C(=O)N[C@@H](CC(C)C)C(=O)N[C@@H](CCCNC(=N)N)C(=O)N[C@@H](CCCCN)C(=O)N[C@@H](CC(C)C)C(=O)NC(C)(C)C(=O)N[C@@H](CCCCN)C(=O)N[C@@H](CCCNC(=N)N)C(=O)N[C@@H](CC(C)C)C(=O)N[C@@H](CC(C)C)C(N)=O [COG1410, AS(Aib)LRKL(Aib)KRLL (SEQ ID NO: 5)] (Ac-AS[Aib]LRKL[Aib]KRLL-NH2; N-terminus and C-terminus assumed)					15 mg/kg	< 4.70	Tmax [7]: 20 to 30 min; half-life [7]: 60 to 90 min; pEC50 ([1]; read-out: EC50 anti-CLL cytotoxic activity, B-CLL cells): 5.24
Ac-RQIKIWFQNRRMKWKKCLRVRLASHLRKLRKRLL-NH2 [COG112, RQIKIWFQNRRMKWKK-C-LRVRLASHLRKLRKRLL (SEQ ID NO: 1)]	9.2	5.85		> 6.00	28 mg/kg	< 4.70	pIC50 [9]: 7.24; LD50 [10]: 7 µM; safety window, LD50 versus effective suppression concentrations ([10]; versus 12-58 nM): > 120 fold; pIC50 [11]: 7.92; pIC50 ([3]; BV2 cells, LPS 100 ng/mL, read-out: IC50 for NO production/release): 7.68
LRVRLAS(Aib)LRKLR(K-Ac)RLL (SEQ ID NO: 35) (LRVRLAS[Aib]LRKLRK(Ac)RLL) [COG345]			improved anti-inflammatory activity				
